From patent US9371362B2, “Prostate specific antigen agents and methods of using same for prostate cancer imaging” (VisEn Medical, Inc., priority 2012, dated 2016)
Non-standard residues stand in square brackets, D forms with d. Y‑mPEG ~40 kDa = Y-mPEG amine, ~40 kDa, coupled at C-terminal carboxyl; Hyp = O=C(O)[C@@H]1C[C@@H](O)CN1; Chg = N[C@H](C(=O)O)C1CCCCC1

Experiments:
[1] = tested on: LNCaP tumors (PSA+) and PC3 (PSA−) tumors; test: In vivo specificity imaging, LNCaP (PSA+) versus PC3 (PSA−) tumors, FMT2500; settings: male Nu/Nu mice, 2 nmoles intravenously, imaged 24 hours later
Protocol: FIG. 2B is a histogram comparing fluorescence between prostate cancer expressing (PSA positive) and control (PSA negative) mice injected with the prostate specific antigen activatable agent (compound A10) and imaged tomographically.
Imaging studies were performed in LNCaP tumors (PSA+) and PC3 (PSA−) tumors tumor-bearing male Nu/Nu mice. The mice were injected intravenously with 2 nmoles of compound A10 and imaged 24 hours later on the FMT2500 (PerkinElmer Inc., Waltham, Mass.). Tumor fluorescence from positive and control mice was quantified and plotted.

[2] = biological target: active PSA (Homo sapiens, UniProt P07288); test: In vitro activation (cleavage) of agent by enzymatically active PSA, kinetic fluorescence reading; assay type: biochemical; settings: 0.5 μM agent, 0.1 μM activated enzyme, TCNB buffer pH 7.5
Chain of active PSA (P07288 25-261): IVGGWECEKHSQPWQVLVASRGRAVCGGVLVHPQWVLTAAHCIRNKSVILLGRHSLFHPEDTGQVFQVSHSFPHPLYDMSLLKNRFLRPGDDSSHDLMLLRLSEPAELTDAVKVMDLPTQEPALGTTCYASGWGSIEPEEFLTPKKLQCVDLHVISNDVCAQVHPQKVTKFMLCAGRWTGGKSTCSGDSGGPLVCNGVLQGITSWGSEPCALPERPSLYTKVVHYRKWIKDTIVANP
Protocol: (§1) Data in FIG. 1 depict activation of the prostate specific antigen activatable agents (compound A10).
(§2) Kinetic fluorescence readings were performed in a Gemini fluorescence plate reader at different times after adding the enzyme.
(§3) In this experiment, fluorescence is only associated with the test agents (compound A10) in the prescence of active PSA described herein.

[3] = biological target: complexed PSA (Homo sapiens, UniProt P07288); test: In vitro activation of agent by complexed (inactive) PSA, kinetic fluorescence reading; assay type: biochemical; settings: 0.5 μM agent, optimized buffer pH 7.5
Chain of complexed PSA (P07288 25-261): as above
Chain of complexed PSA (P01011 24-423 partner): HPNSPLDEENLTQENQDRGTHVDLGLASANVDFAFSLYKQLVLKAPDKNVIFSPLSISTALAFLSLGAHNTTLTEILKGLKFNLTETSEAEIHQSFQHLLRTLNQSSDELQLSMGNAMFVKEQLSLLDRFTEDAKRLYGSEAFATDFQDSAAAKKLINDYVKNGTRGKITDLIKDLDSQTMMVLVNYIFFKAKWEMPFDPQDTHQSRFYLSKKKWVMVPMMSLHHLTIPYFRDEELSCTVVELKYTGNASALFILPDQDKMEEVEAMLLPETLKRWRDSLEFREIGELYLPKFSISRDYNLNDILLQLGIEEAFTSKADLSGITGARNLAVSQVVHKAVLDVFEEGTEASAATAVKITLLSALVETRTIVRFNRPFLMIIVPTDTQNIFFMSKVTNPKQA
Protocol: as §1, §2, §3

[4] = tested on: human prostate PSA+ LNCaP tumor; test: In vivo imaging of prostate cancer, FMT2500 reflectance and tomography, IVIS Spectrum; settings: male Nu/Nu mice, 2 nmoles intravenously, imaged 6 hours later
Protocol: FIG. 2A depicts epi-fluorescent reflectance and tomographic images for sites of active PSA detected in prostate cancer expressing mice six hours post-injection using a prostate specific antigen activatable agent (compound A10).
As depicted in FIG. 2A, imaging studies were performed in human prostate PSA^+ LNCaP tumor-bearing male Nu/Nu mice. The mice were injected intravenously with 2 nmoles of test agent (compound A10) and were imaged 6 hours later on the FMT2500 (PerkinElmer Inc., Waltham, Mass.) (FMT 2D for epifluorescence, FMT 3D for tomography) in reflectance and tomographic modes, and on the IVIS Spectrum (PerkinElmer Inc., Waltham, Mass.).

activation (fluorescence) in the presence of active PSA [2]: activated in the presence of active PSA
activation (fluorescence) in the presence of complexed PSA [3]: not complexed PSA
Substance: A10 (Ac-K[Hyp]SS[Chg]QSSK-{Y‑mPEG ~40 kDa}; also: conjugated with NHS ester of fluorophore F8, sites not given here) [Compound A10]
specificity of tumor fluorescence for PSA positive over PSA negative tumors [1]: specificity the prostate specific antigen activatable agents have for tumors containing enzymatically active PSA over PSA negative tumors in vivo
detection of sites of enzymatically active PSA in vivo [4]: Sites of active PSA are detected in the same locations for both reflectance and tomographic imaging
